One may read the GI50 as the concentration giving 50% growth inhibition. The term TGI denotes the concentration giving total growth inhibition.

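Tested at 5 concentrations; 48 h exposure; 96-well plates; endpoints linearly interpolated, else capped at highest concentration. At the GI50, growth is halved. The concentration for full growth arrest is given as TGI.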

From PubChem BioAssay (NCI) come the findings set out here.

Among the test systems are K-562 leukemia; UACC-62 melanoma; LOX IMVI melanoma; NCI-H522 lung; HCT-116 colon; 786-0 renal; RPMI-8226 leukemia; SR leukemia; HOP-62 NSCLC; IGROV1 ovarian.
What all share (assay): DTP human tumour cell line panel, 48 h

As for `COC12C=C/C(=C(/C(=O)OCc3csc(SC)n3)C(=O)CCCCCCCCC3(OC)C=C/C(=C(/C(=O)OCc4cnc(SC)s4)C(=O)CCCCCCCC1)O3)O2` (configuration not stated), the GI50 with K-562 leukemia was 3.19 µM; in the assay with UACC-62 melanoma, 3.51 µM; in the assay on LOX IMVI melanoma it was 1.2 µM; in the assay on NCI-H522 lung it was 1.5 µM; in the assay with HCT-116 colon it was 0.439 µM; in the assay on 786-0 renal, 4.93 µM. The GI50 in the assay with RPMI-8226 leukemia was 0.946 µM; in the assay on SR leukemia, 2.05 µM; in the assay with HOP-62 NSCLC, 4.48 µM; in the assay on IGROV1 ovarian it was 3.89 µM. The TGI in the assay on K-562 leukemia is above 100 µM; in the assay with UACC-62 melanoma, 35.2 µM; in the assay on LOX IMVI melanoma it was 3.53 µM; with NCI-H522 lung it was 21.1 µM; with HCT-116 colon, 10.9 µM; in the assay with 786-0 renal, 26.1 µM. For the same molecule, the TGI was above 100 µM with RPMI-8226 leukemia, above 100 µM with SR leukemia, 70.6 µM in the assay on HOP-62 NSCLC and 83.6 µM in the assay on IGROV1 ovarian.

For the molecule `COc1ccc(-c2nn(-c3cccc(Cl)c3)cc2/C=C2\C(=N)N(c3ccccc3)N=C2N)cc1`, the concentration for 50% growth inhibition (GI50) in the assay on K-562 leukemia is 0.352 µM; with UACC-62 melanoma it was 0.331 µM; with LOX IMVI melanoma it was 0.337 µM; with NCI-H522 lung it was 0.916 µM; with HCT-116 colon, 1.59 µM; in the assay on 786-0 renal it was 1.35 µM. Further, the GI50 is 0.993 µM in the assay with RPMI-8226 leukemia, 1.04 µM in the assay with SR leukemia, 16 µM in the assay on HOP-62 NSCLC and 2.1 µM with IGROV1 ovarian. In addition, the total growth inhibition concentration (TGI) with K-562 leukemia came to 32.6 µM; in the assay on UACC-62 melanoma it was 3.75 µM; in the assay on LOX IMVI melanoma it was 4.58 µM; in the assay with NCI-H522 lung it was 23 µM; with HCT-116 colon, 17.2 µM; with 786-0 renal, 29.9 µM. In addition, the total growth inhibition concentration (TGI) in the assay on RPMI-8226 leukemia was 46.2 µM; in the assay on SR leukemia, 15.1 µM; with HOP-62 NSCLC, above 80.6 µM; in the assay on IGROV1 ovarian, above 84.8 µM.

Take `COc1ccc2nc3cc(Cl)ccc3c(Nc3ccc(O)c(CN4CCCC4)c3)c2c1`: the GI50 is 1.99 µM in the assay on K-562 leukemia; 1.71 µM in the assay with UACC-62 melanoma; 1.73 µM with LOX IMVI melanoma; 1.67 µM in the assay with NCI-H522 lung; 1.41 µM with HCT-116 colon; 1.83 µM in the assay on 786-0 renal. Further, the GI50 with RPMI-8226 leukemia was 2.55 µM; in the assay on SR leukemia, 0.534 µM; with HOP-62 NSCLC, 2.14 µM; in the assay with IGROV1 ovarian, 2.6 µM. For the same molecule, the TGI in the assay on K-562 leukemia was determined as 6.44 µM; in the assay on UACC-62 melanoma, 3.51 µM; in the assay with LOX IMVI melanoma it was 3.47 µM; in the assay on NCI-H522 lung, 3.79 µM; in the assay with HCT-116 colon it was 2.92 µM; in the assay on 786-0 renal, 3.5 µM. For the same molecule, the TGI in the assay with RPMI-8226 leukemia stood at 6.41 µM; in the assay with SR leukemia, 3.3 µM; in the assay on HOP-62 NSCLC it was 5.34 µM; in the assay on IGROV1 ovarian, 6.67 µM.

Regarding `NC(=O)c1c(NC(=O)c2cccc(C(F)(F)F)c2)sc2c1CCC(=O)C2`, the GI50 with K-562 leukemia was 0.124 µM; with UACC-62 melanoma, 0.368 µM; in the assay with LOX IMVI melanoma it was 0.356 µM; with NCI-H522 lung, 0.299 µM; with HCT-116 colon it was 0.249 µM; with 786-0 renal, 1.94 µM. Also, the GI50 in the assay with RPMI-8226 leukemia is 0.127 µM; with SR leukemia, 0.424 µM; with HOP-62 NSCLC, 3.06 µM; in the assay with IGROV1 ovarian, 0.468 µM. For the same molecule, the TGI is 1.66 µM with UACC-62 melanoma; 2.8 µM in the assay with LOX IMVI melanoma; 1.62 µM in the assay with NCI-H522 lung; above 32.2 µM in the assay on HCT-116 colon; above 100 µM in the assay with 786-0 renal; 0.745 µM in the assay with RPMI-8226 leukemia. The TGI with SR leukemia was above 100 µM; in the assay on HOP-62 NSCLC, above 91.5 µM; with IGROV1 ovarian, 3.47 µM.

`COC(=O)C1=C(C(=O)OC)C(C(=O)OC)C(C(=O)OC)C(C(=O)OC)(C(=O)OC)C(C(=O)OC)=C1C(=O)OC` (configuration not stated): the total growth inhibition concentration (TGI) in the assay on K-562 leukemia turned out to be 22.4 µM; in the assay on UACC-62 melanoma it was 31 µM; with LOX IMVI melanoma it was 28.2 µM; in the assay on NCI-H522 lung it was 4.07 µM; with HCT-116 colon, 19.6 µM; with 786-0 renal it was 26.3 µM. The TGI turned out to be 10.5 µM with RPMI-8226 leukemia, 3.34 µM in the assay on SR leukemia, 58.1 µM in the assay on HOP-62 NSCLC and 36.8 µM in the assay with IGROV1 ovarian.

Consider `O=C1Cc2ccccc2CCc2ccccc21`, for which the TGI in the assay on K-562 leukemia, in the assay with UACC-62 melanoma, with LOX IMVI melanoma, with NCI-H522 lung, in the assay with HCT-116 colon and in the assay with 786-0 renal was above 100 µM in each case. Also, the TGI in the assay with RPMI-8226 leukemia, with SR leukemia, in the assay on HOP-62 NSCLC and in the assay on IGROV1 ovarian was above 100 µM each time.

In the case of `CC(=O)c1c(Nc2ccc(F)c(F)c2F)[nH]c2c(F)cc(F)cc2c1=O`, the GI50 is 0.347 µM with K-562 leukemia; 0.233 µM in the assay on UACC-62 melanoma; 0.333 µM in the assay on LOX IMVI melanoma; 0.285 µM in the assay with NCI-H522 lung; 0.291 µM in the assay with HCT-116 colon; 0.368 µM with 786-0 renal. For the same molecule, the concentration for 50% growth inhibition (GI50) is 0.206 µM in the assay with RPMI-8226 leukemia, 0.45 µM in the assay with SR leukemia, 0.335 µM with HOP-62 NSCLC and 0.396 µM with IGROV1 ovarian. The total growth inhibition concentration (TGI) with K-562 leukemia was above 100 µM; in the assay with UACC-62 melanoma, 0.836 µM; in the assay with LOX IMVI melanoma, 11.3 µM; in the assay on NCI-H522 lung, 16.6 µM; with HCT-116 colon it was 5.57 µM; in the assay with 786-0 renal, 15.1 µM. Also, the TGI in the assay on RPMI-8226 leukemia is 0.72 µM; with SR leukemia, above 45.9 µM; in the assay with HOP-62 NSCLC, 8.18 µM; with IGROV1 ovarian, above 47.4 µM.

As for `O=c1ncccn1C1OC(CO)C(O)C1F` (configuration not stated), the GI50 in the assay with K-562 leukemia, in the assay on UACC-62 melanoma and with HCT-116 colon was above 100 µM each time. The TGI in the assay with K-562 leukemia, in the assay with UACC-62 melanoma, with LOX IMVI melanoma, in the assay on NCI-H522 lung, in the assay with HCT-116 colon and in the assay with 786-0 renal was above 100 µM each time. In addition, the concentration for total growth inhibition (TGI) in the assay with RPMI-8226 leukemia, in the assay on SR leukemia, in the assay with HOP-62 NSCLC and with IGROV1 ovarian was above 100 µM in each case.

Turning to `CN1C=C(C(N)=O)C2CC(O)[C@@](NC(=O)CS(N)(=O)=O)(C(=O)O)C2C1` (some centres not stated), the TGI with K-562 leukemia is above 100 µM; in the assay with UACC-62 melanoma it was 7.02 µM; in the assay with LOX IMVI melanoma it was 5.58 µM; in the assay on NCI-H522 lung, 23.9 µM; in the assay with HCT-116 colon, 18.7 µM; with 786-0 renal, 16.4 µM. For the same molecule, the TGI is 58.9 µM in the assay with RPMI-8226 leukemia, 15.7 µM in the assay with SR leukemia, 4.27 µM with HOP-62 NSCLC and 7.83 µM in the assay on IGROV1 ovarian.
